Values quoted from earlier work in patent US20110021470A1, “METHODS FOR TREATING CANCER COMPRISING THE ADMINISTRATION OF A VITAMIN D COMPOUND AND AN ADDITIONAL THERAPEUTIC AGENT, AND COMPOSITIONS CONTAINING THE SAME” (Cougar Biotechnology, Inc., priority 2006, published 2011).

What was measured:
[1] = in vivo
[2] = in vivo; remark: listed apart in the source
[3] = tested on: cell growth and differentiation
[4] = oral lipid formulations (medium chain triglyceride, long chain triglyceride) compared with a formulation containing propylene glycol

In the case of “1(S),3(R)-dihydroxy-20(R)-(5′-ethyl-5′-hydroxyhepta-1′(E),3′(E)-dien-1′-yl)-9,10-secopregna-5(Z),7(E),-10(19)-triene [Seocalcitol]”, the calcemic activity [1] is listed as “low”, the “calcemic activity relative to 1α,25-dihydroxycholecalciferol” value ([1]; versus 1α,25-dihydroxycholecalciferol) is listed as “approximately 50 % weaker” and the biological half-life [2] is listed as “suitable for systematic use”. For the same substance, the anti-proliferative activity [3] was “strong”, the “potency in regulation of cell growth and differentiation relative to 1α,25-dihydroxycholecalciferol” value ([3]; in vitro and in vivo, versus 1α,25-dihydroxycholecalciferol) was 50-200 times more potent and the bioavailability of seocalcitol [4] was “twofold higher”.
